Measured values reported in patent publication US7470715B2, “Estrogen modulators” (Pfizer Inc., priority 2005, dated 2008).

Columns and labels:
[1] = molecular target: ligand binding domain of the estrogen receptor beta chain (ERβLBD) that contained a point mutation at amino acid residue 418 (pm418) (Homo sapiens, UniProt Q92731); assay: ER agonist cell assay (ERβ), Huh-7 co-transfection, luciferase; format: cell-based; details: for EC50: Huh-7 cells co-transfected with pG5luc and ERβLBD(pm418), overnight incubation, luciferase; for ERβ % of Max E2 Response: percent of the maximum estradiol fold change, Huh-7, pG5luc and ERβLBD(pm418)
Description: (§1) The compounds ability to mimic the effects of estrogen on the estrogen receptor were determined in a whole cell assay as described immediately below.
(§2) Experimental Procedure for ER Agonist Cell Assay
(§3) • Cell line and plasmids: The human hepatoma cell line Huh-7 was used for co-transfections. Cells were maintained in culture medium and split when they reached 80-90% confluency. Three plasmids were routinely used in the assay. pG5luc contained the firefly luciferase gene and was obtained from Promega. […] Cell Culture Media and Reagents:
(§4) Culture medium: DMEM (phenol red free), 10% charcoal treated HyClone serum, 1% L-glutamine, and 1% penicillin/streptomycin
(§5) Transfection medium: DMEM (phenol red free) and 10% charcoal treated HyClone serum
(§6) Luciferase reagents: Dual-Glo Luciferase Kit (Promega cat #E2980) was used for determination of luciferase activity.
(§7) Transient transfections were preformed using the lipophilic reagent FuGENE 6 (Roche). Cells were split and seeded at 7.2×10^6/150 cm^2 flask in 20 mL of transfection medium. 5-6 hrs later cells were co-transfected with either pG5luc and ERαLBD or pG5luc and ERβLBD(pm418). Transfected cells grew overnight and were then used the next day.
(§8) Cells transfected 24 hrs earlier were harvested, counted, and seeded in wells containing compound at a density of 1×10^4 cells/well. […] Cells were incubated overnight at 37° C. and 5% CO2 in the presence of compound. The following day medium was aspirated from the wells and 100 ul of Dual-Glo™ Luciferase Reagent were added to each well. Plates were incubated at room temperature for 20 minutes and firefly luminescence was measured on a luminometer. Next, 50 ul of Dual-Gbo™ Stop & Glo® Reagent were added to each well and after 20 minutes at room temperature the Renilla luminescence was measured on a luminometer. Values from each well were normalized by dividing the firefly luminescence by the Renilla luminescence. Estradiol was used as the standard and run in each assay. The fold induction over background for each compound was compared to the maximum fold induction for estradiol in each assay. […] Those compounds that were not tested, or the data was unavailable are marked as NT.

[2] = molecular target: T1, ligand binding domain of the estrogen receptor alpha chain (ERαLBD) (Homo sapiens, UniProt P03372); assay: ER agonist cell assay (ERα), Huh-7 co-transfection, luciferase; format: cell-based; details: for EC50: Huh-7 cells co-transfected with pG5luc and ERαLBD, overnight incubation, luciferase; for ERα % of Max E2 Response: percent of the maximum estradiol fold change, Huh-7, pG5luc and ERαLBD
T1 construct: expressed in transfected cells; host or cells: Huh-7 human hepatoma cells, transient transfection with FuGENE 6
T1 sequence (P03372 311-547 limits assumed): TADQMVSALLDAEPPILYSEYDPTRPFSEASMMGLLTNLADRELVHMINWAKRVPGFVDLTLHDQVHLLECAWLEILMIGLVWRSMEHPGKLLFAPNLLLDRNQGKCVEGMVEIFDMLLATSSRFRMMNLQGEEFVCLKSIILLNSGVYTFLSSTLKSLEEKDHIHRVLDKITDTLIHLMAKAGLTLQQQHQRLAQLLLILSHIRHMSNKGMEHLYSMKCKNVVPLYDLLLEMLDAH
Description: as §1, §2, §3, §4, §5, §6, §7, §8

[3] = test system: hairless female SKH, 1-hr mice; assay: Animal model for reversal of wrinkles: skin thickness model, topical dosing, skin thickness and hyaluronic acid; format: in vivo, mouse; details: 1% topical, QD, three days
From the text: Animal Model for Reversal of Wrinkles
Uzuka et al. describes an increase in mouse back skin water content, hyaluronic acid (HA) content, and hyaluronic acid synthetase activity following topical application or subcutaneous injection of estradiol (Biochimica et Biophysica Acta, 627, 199-206, 1980; Biochimica et Biophysica Acta 673, 387-393, 1981). […] Thus, this model may be used to as a preliminary screen to assess the potential for estrogen modulators to alleviate wrinkles in human skin.
The skin thickness model uses hairless female SKH, 1-hr mice. Mice aged to approximately 11 weeks are introduced into the laboratory environment and acclimated for at least 1 week prior to use in the study may be used. Each group typically consisted of 7 animals that may be run in parallel with vehicle and the positive control estradiol. Based on binding and/or cellular assay data, compounds are chosen for screening in this model. Those compounds include the products of Examples, 2, 9, 15, 46, 47, 48, 51, 52, 61, 135, and 137. Prior to topical application to mouse dorsal skin, a sufficient quantity of each compound is dissolved in a solvent generally consisting of ethanol and propylene glycol (70/30% v/v) (vehicle) to achieve the final concentration specified in Table C below. Animals are dosed topically QD or BID, for three days. Each dose consisted of 100 microliters of vehicle or drug applied uniformly to the entire dorsal surface (˜18 cm^2). All animals are sacrificed approximately 18-24 hours after the final dose. Skin thickness (ST) is measured using a caliper. HA is extracted from the skin and quantitated using commercially-available enzyme-linked immunosorbent assays (ELISAs)(HA).
Data are presented as percent of the estradiol response after subtracting out the ST for vehicle-treated mouse skin. The estradiol response is set to 100% and the vehicle resoibse becines 0%.

| melting point | EC50 [1] | ERβ % of Max E2 Response [1] | EC50 [2] | ERα % of Max E2 Response [2] | Structure (SMILES) | HA (hyaluronic acid), percent of the estradiol response [3] | ST (skin thickness), percent of the estradiol response [3] |
| --- | --- | --- | --- | --- | --- | --- | --- |
| 220 to 225 °C | – | – | – | – | NCC1(c2onc(-c3ccc(O)cc3)c2-c2ccccc2)CC1 [Example 105, 4-{5-[1-(Aminomethyl)cyclopropyl]-4-phenylisoxazol-3-yl}phenol] | – | – |
| 148 to 149 °C | > 10000 nM | >0.727% | 141 nM | 14.7% | CCOc1ccccc1OCC1(c2onc(-c3ccc(O)cc3)c2-c2ccccc2)CC1 [Example 4, 4-{5-[1-(2-Ethoxy-phenoxymethyl)-cyclopropyl]-4-phenyl-isoxazol-3-yl}-phenol] | – | – |
| 212 to 214 °C | – | – | – | – | CC1(c2onc(-c3ccc(O)cc3)c2-c2ccccc2)CC1 [Example 36, 4-[5-(1-methyl-cyclopropyl)-4-phenyl-isoxazol-3-yl]phenol] | – | – |
| 316 to 317 °C | – | – | – | – | Cl.Oc1ccc(-c2noc(C3(CNc4ccncc4)CC3)c2-c2ccccc2)cc1 | – | – |
| 169 to 170 °C | – | 0.679% | 38.4 nM | 45.3% | Oc1ccc(-c2noc(C3(C(O)(C4CC4)C4CC4)CC3)c2-c2ccccc2)cc1 [Example 99, 4-{5-(1-(Dicyclopropyl-hydroxy-methyl)-cyclopropyl]-4-phenyl-isoxazol-3-yl}-phenol] | – | – |
| 190 to 192 °C | > 10000 nM | >3.19% | 237 nM | 9.48% | CCOc1ncccc1OCC1(c2onc(-c3ccc(O)cc3)c2-c2ccccc2)CC1 [Example 6, 4-{5-[1-(2-Ethoxy-pyridin-3-yloxymethyl)-cyclopropyl]-4-phenyl-isoxazol-3-yl}-phenol] | – | – |
| 197 to 200 °C | 130 nM | 5.78% | 171 nM | 25% | Oc1ccc(-c2noc(C3CC3)c2-c2ccccc2)cc1 [Example 35, 4-(5-Cyclopropyl-4-phenyl-isoxazol-3-yl)-phenol] | – | – |
| 220 to 221 °C | – | – | – | – | C[C@H](O)C1(c2onc(-c3ccc(O)cc3)c2-c2ccccc2)CC1 [Example 100, Alt. D, (S)-(+)-4-{5-[1-(1-Hydroxy-ethyl)-cyclopropyl]-4-phenyl-isoxazol-3-yl}-phenol] | – | – |
| 244 to 245 °C | – | – | – | – | Oc1ccc(-c2noc(C3(C[n+]4ccccc4)CC3)c2-c2ccccc2)cc1.[Cl-] | – | – |
| 193 to 194 °C | – | – | – | – | Cl.Oc1ccc(-c2noc(C3(CN4CCCNCC4)CC3)c2-c2ccccc2)cc1 | – | – |
| 276 to 277 °C | – | – | – | – | Oc1ccc(-c2noc(C3(CNCC4CCCO4)CC3)c2-c2ccccc2)cc1 (racemic) [Example 30, (±)-4-[4-Phenyl-5-(1-{[(tetrahydro-furan-2-ylmethyl)-amino]-methyl}-cyclopropyl)-isoxazol-3-yl]-phenol] | – | – |
| 109 to 110 °C | > 10000 nM | >3.71% | 12.9 nM | 23.3% | CC(C)COC(=O)C1(c2onc(-c3ccc(O)cc3)c2-c2ccccc2)CC1 [Example 60, 1-[3-(4-Hydroxy-phenyl)-4-phenyl-isoxazol-5-yl]-cyclopropanecarboxylic acid isobutyl ester] | – | – |
| 126 to 127 °C | > 10000 nM | >0.571% | 26.5 nM | 18.2% | CCC(NCC1(c2onc(-c3ccc(O)cc3)c2-c2ccccc2)CC1)c1ccccc1 (racemic) [Example 25, (±)-4-(4-Phenyl-5-{1-[(1-phenyl-propylamino)-methyl]-cyclopropyl}-isoxazol-3-yl)-phenol] | – | – |
| 196 to 197 °C | 46.7 nM | 81.2% | 47.5 nM | 79.3% | CC(O)C1(c2onc(-c3ccc(O)cc3)c2-c2ccccc2)CC1 (racemic) [Example 45, (±)-4-{5-[1-(1-Hydroxy-ethyl)-cyclopropyl]-4-phenyl-isoxazol-3-yl}-phenol] | – | – |
| 212 to 213 °C | 23.6 nM | 36.7% | 159 nM | 94.6% | CC(C)(O)C1(c2onc(-c3ccc(O)cc3)c2-c2ccccc2)CC1 [Example 49, 4-{5-[1-(1-Hydroxy-1-methyl-ethyl)-cyclopropyl]-4-phenyl-isoxazol-3-yl}-phenol] | – | – |
| 210 to 211 °C | – | – | – | – | OCC1(c2onc(-c3ccc(O)cc3)c2-c2ccccc2)CC1 [Example 2, 4-[5-(1-Hydroxymethyl-cyclopropyl)-4-phenyl-isoxazol-3-yl]-phenol] | 15% | 19% |
| 118 to 119 °C | – | 1% | 124 nM | 80.2% | CCC(O)(CC)C1(c2onc(-c3ccc(O)cc3)c2-c2ccccc2)CC1 [Example 50, 4-{5-[1-(1-Ethyl-1-hydroxy-propyl)-cyclopropyl]-4-phenyl-isoxazol-3-yl}-phenol] | – | – |
| 165 to 166 °C | – | – | – | – | CC[C@H](O)C1(c2onc(-c3ccc(O)cc3)c2-c2ccccc2)CC1 [Example 100, Alt. F, (S)-(+)-4-{5-[1-(1-hydroxy-propyl)-cyclopropyl]-4-phenyl-isoxazol-3-yl}-phenol] | – | – |
| 234 °C | – | – | – | – | CN(C)CC1(c2onc(-c3ccc(O)cc3)c2-c2ccccc2)CC1.Cl | – | – |
| 132 to 133 °C | > 10000 nM | >4.51% | 45.9 nM | 19.3% | Oc1ccc(-c2noc(C3(COc4c(F)cccc4OC(F)(F)F)CC3)c2-c2ccccc2)cc1 [Example 5, 4-{5-[1-(2-Fluoro-6-trifluoromethoxy-phenoxymethyl)-cyclopropyl]-4-phenyl-isoxazol-3-yl}-phenol] | – | – |

| Structure (SMILES) | melting point | EC50 [1] | ERβ % of Max E2 Response [1] | EC50 [2] | ERα % of Max E2 Response [2] | HA (hyaluronic acid), percent of the estradiol response [3] | ST (skin thickness), percent of the estradiol response [3] |
| --- | --- | --- | --- | --- | --- | --- | --- |
| Cl.Oc1ccc(-c2noc(C3(CNc4ccc5c(c4)CCC5)CC3)c2-c2ccccc2)cc1 [Example 23, 4-{5-[1-(Indan-5-ylaminomethyl)-cyclopropyl]-4-phenyl-isoxazol-3-yl}-phenol hydrochloride salt] | 204 to 205 °C | 3860 nM | 5.5% | 559 nM | 21% | – | – |
| Cl.Oc1ccc(-c2noc(C3(CN4CCSCC4)CC3)c2-c2ccccc2)cc1 [Example 32, 4-[4-Phenyl-5-(1-thiomorpholin-4-ylmethyl-cyclopropyl)-isoxazol-3-yl]-phenol hydrochloride salt] | 249 to 250 °C | 19.5 nM | 0.999% | 22.9 nM | 38.5% | – | – |
